Non-standard residues stand in square brackets, D forms with d. Residues, ends and D or L forms follow the SMILES beside them. *: point of attachment. 5FAM = O=C1OC2(c3ccc(O)cc3Oc3cc(O)ccc32)c2ccc(C(=O)*)cc21; MethylRed = CN(C)c1ccc(/N=N/c2ccccc2C(=O)*)cc1; AEEA = NCCOCCOCC(=O)O; βAla = NCCC(=O)O
Key:
[1] = molecular target: T1, rhFAP (Homo sapiens, UniProt Q12884); assay: Probe cleavage by recombinant human FAP (fluorescence plate assay, MALDI confirmation); type: biochemical; settings: probe 5 µM; for Cleavage by rhFAP (fluorescence signal): rhFAP 0.1 µg/ml, TRIS buffer (pH 7.5), 20 µl, read 480/530 nm, n=3 run in triplicate; for FAP specificity (over PREP): rhFAP compared with rhPREP, each 0.1 µg/ml
T1 construct: purchased R&D Systems
T1 sequence (Q12884 26-760 limits assumed): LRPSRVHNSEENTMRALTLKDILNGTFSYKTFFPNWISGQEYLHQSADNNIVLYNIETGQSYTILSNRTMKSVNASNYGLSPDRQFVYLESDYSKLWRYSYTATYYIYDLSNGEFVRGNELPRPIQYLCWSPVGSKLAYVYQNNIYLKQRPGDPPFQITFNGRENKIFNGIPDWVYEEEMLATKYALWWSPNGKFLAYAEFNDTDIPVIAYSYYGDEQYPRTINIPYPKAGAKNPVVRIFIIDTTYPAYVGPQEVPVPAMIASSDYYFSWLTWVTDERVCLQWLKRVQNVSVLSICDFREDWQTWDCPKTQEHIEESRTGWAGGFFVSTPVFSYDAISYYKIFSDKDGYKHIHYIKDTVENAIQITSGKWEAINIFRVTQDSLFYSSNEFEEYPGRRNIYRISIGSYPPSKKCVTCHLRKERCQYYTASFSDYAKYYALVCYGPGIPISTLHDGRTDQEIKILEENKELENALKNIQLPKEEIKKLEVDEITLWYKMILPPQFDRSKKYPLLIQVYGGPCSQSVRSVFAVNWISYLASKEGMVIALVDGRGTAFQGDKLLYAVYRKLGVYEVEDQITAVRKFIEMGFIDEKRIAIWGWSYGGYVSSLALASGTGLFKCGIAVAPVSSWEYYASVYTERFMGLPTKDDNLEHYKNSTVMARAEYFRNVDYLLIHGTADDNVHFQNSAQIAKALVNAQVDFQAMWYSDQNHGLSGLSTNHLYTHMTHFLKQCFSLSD

[2] = molecular target: T2, rhPREP (Homo sapiens, UniProt P48147); assay: Probe cleavage by recombinant human PREP (fluorescence plate assay, MALDI confirmation); type: biochemical; settings: probe 5 µM, rhPREP 0.1 µg/ml, TRIS buffer pH 7.5, read 480/530 nm, n=3 run in triplicate
T2 construct: purchased R&D Systems
T2 sequence (P48147 1-710): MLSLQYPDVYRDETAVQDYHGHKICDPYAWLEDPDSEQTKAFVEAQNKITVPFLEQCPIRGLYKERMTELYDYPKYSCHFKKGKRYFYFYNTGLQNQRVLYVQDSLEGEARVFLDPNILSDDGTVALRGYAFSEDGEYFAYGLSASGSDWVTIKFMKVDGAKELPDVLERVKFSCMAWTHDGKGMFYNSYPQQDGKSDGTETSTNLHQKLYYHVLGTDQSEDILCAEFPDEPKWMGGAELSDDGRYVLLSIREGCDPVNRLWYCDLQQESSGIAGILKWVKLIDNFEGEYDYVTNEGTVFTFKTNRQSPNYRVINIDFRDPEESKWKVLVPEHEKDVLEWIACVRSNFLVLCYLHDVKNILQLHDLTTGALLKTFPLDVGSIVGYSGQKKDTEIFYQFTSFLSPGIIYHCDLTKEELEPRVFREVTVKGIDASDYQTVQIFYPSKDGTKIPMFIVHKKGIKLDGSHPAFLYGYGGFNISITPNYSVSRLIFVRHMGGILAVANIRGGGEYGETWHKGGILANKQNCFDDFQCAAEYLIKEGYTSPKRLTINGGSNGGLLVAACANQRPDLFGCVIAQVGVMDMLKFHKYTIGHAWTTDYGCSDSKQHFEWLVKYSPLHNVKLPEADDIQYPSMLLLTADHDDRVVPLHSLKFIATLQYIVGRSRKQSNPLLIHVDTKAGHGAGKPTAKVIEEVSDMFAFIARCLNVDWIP

[3] = molecular target: rhDPPIV (Homo sapiens, UniProt P27487); assay: Probe cleavage by recombinant human DPP-IV (exopeptidase activity); settings: probe 5 µM, rhDPPIV 0.1 µg/ml, TRIS buffer pH 7.5, read 480/530 nm, n=3 run in triplicate
Method: Recombinant human enzymes [rhFAP (R&D Systems), rhPREP (R&D Systems) and rhDPPIV (Biolegend)] were stored in stocks at -70°C and diluted as required to be used at final concentration of 0.1 µg/ml. Enzymes were aliquoted upon receipt from the supplier and new stocks made from a fresh aliquot as required.
Assays were undertaken in triplicate in blackened 384 well plates on ice prior to spectral reads. […] All wells contained a final volume of 20 µl to include buffers, inhibitors (if used), substrates and recombinant human enzymes (at a concentration of 0.1 µg/ml unless otherwise stated). […] Plates were sealed with an optical plate sealer (Biolegend) and were read in a preheated spectrophotometer (Synergy Biotek) in monochromator-based mode at 380/460 nm for control substrates and 480/530 nm for synthesised FAP probes.

[4] = test system: NSCLC patient tissue samples; assay: Fluorescence intensity and lifetime imaging (FLIM) of ex vivo NSCLC tissue; design: species or system human; settings: Talabostat at a dilution of 1:1000 with FAP3 5 µM, N=5
Method: For imaging solutions, varying concentrations of rhFAP were prepared in blackened eppendorfs and FAP3 to a final concentration of 5µM added and imaged as below. For biological specimens, NSCLC patient tissue samples from surgical resection were used fresh or snap frozen and stored at -80°C until required. Small fragments (approx. 4mm^3) incubated at 37°C in a 96 well plate in phenyl-red free DMEM (Gibco) containing 10% FCS, 1% Penicillin-streptomycin and 1% L-Glutamine. For the tissue fragments to be used as inhibitor controls, we added Talabostat at a dilution of 1:1000. Samples were then imaged using a clinically approved fluorescence lifetime imaging system used in conjunction with an imaging fibre ([30]) providing a 400 x 400 µm field of view. The imaging system incorporates a pulsed supercontinuum laser source, in this case tuned for excitation at 488 nm, with an achromatic confocal laser scanning system and a time-resolved spectrometer. This spectrometer contains a 512 channel single photon avalanche diode (SPAD) sensor ([31]) allowing for the rapid collection of time resolved spectral fluorescence lifetime data. Fluorescence intensity and lifetime images were collected using an image resolution of 160 x 160 pixels over a 498 – 570 nm spectral range with an exposure time of 13 µs per pixel. This led to an imaging rate of ~3 frames per second.
For each condition, the tumour samples were imaged using a fibre placed at the surface of the tissue (baseline), and then again at 10-minute intervals following the additions of equimolar concentrations of probe +/- Inhibitor. For imaging solutions, the fibre was held within the solution and imaged every 5 minutes. Each condition and time-point data for both fluorescence intensity and lifetime were collected. Imaging sequences had non-relevant frames removed, and the entire field of view was analysed. Analysis was undertaken using a bespoke software suite utilising the rapid lifetime determination (RLD) method ([32]). […]

[5] = test system: DPP-IV; settings: cited from earlier work
Description: As starting point for our study, a peptide sequence previously published within a FAP optical reporter was synthesised (GPGPNQ), which had been determined to be FAP specific over DPP-IV but had not been assessed against PREP ([24]). We synthesised the reported peptide sequence but for FRET pairing we utilised a Carboxyfluorescein (FAM) fluorophore with a Methyl Red quencher ( Figure 1A ) as an alternative to Cy5.5/QSY21. The peptide sequence was synthesized by Fmoc solid-phase peptide synthesis on ChemMatrix resin using Oxyma/DIC as the coupling combination. FAM was incorporated at the N-termi ...

[6] = test system: FAP expressing tumours; settings: murine tumour models, NIR fluorescence; cited from earlier work
Description: Prior studies investigating FAP as an optical probe target focussed on near infrared (NIR) fluorophores where signal can be detected with minimal intrinsic tissue autofluorescence. Li et al. designed an activatable NIR fluorescent probe (ANPFAP) for FAP which was composed of the NIR dye Cy5.5 and the quencher dye QSY21 which were linked by a peptide sequence which is cleaved specifically by FAP (KGPGPNQC) ([24]). […] Although not developed as an imaging optical ...

Chain of rhDPPIV (P27487 29-766 limits assumed): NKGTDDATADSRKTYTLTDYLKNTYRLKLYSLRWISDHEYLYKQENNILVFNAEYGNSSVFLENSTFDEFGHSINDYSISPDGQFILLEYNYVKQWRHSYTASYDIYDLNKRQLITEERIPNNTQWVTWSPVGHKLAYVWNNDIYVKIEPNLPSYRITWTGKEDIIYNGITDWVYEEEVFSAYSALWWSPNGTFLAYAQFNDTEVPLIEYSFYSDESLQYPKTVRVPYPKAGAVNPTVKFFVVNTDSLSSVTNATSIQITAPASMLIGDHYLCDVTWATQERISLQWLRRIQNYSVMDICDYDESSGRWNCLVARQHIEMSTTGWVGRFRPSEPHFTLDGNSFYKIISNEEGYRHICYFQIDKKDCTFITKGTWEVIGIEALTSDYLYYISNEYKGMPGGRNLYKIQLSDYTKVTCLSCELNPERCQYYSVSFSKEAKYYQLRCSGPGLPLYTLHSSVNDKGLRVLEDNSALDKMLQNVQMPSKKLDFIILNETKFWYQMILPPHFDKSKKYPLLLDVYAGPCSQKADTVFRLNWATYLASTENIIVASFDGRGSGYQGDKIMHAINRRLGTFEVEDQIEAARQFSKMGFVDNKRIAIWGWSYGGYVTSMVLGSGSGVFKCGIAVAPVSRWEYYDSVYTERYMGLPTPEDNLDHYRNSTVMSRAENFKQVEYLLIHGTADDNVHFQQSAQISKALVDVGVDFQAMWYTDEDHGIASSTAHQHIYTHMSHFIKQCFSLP

Cleavage by rhFAP (fluorescence signal) [1]	Cleavage by rhPREP (fluorescence signal) [2]	FAP specificity (over PREP) [1]	Molecule	other results
FAP activity was absent	demonstrated cleavage by PREP		C[C@H](NC(=O)[C@@H](N)CCCCNC(=O)c1ccccc1/N=N/c1ccc(N(C)C)cc1)C(=O)N1CCC[C@H]1C(=O)N[C@@H](CO)C(=O)N[C@@H](CCCCNC(=O)c1ccc2c(c1)C(=O)OC21c2ccc(O)cc2Oc2cc(O)ccc21)C(=O)NCCOCCOCC(=O)N[C@H](CCCCN)C(=O)NCCOCCOCC(=O)N[C@H](CCCCN)C(=O)NCCOCCOCC(=O)N[C@H](CCCCN)C(N)=O [FAP2AAla] (H-K(MethylRed)APSK(5FAM)[AEEA][dK][AEEA][dK][AEEA][dK]-NH2)	
reduced signal		FAP specificity over PREP	C[C@@H](NC(=O)[C@@H](N)CCCCNC(=O)c1ccccc1/N=N/c1ccc(N(C)C)cc1)C(=O)N1CCC[C@H]1C(=O)N[C@@H](CO)C(=O)N[C@@H](CCCCNC(=O)c1ccc2c(c1)C(=O)OC21c2ccc(O)cc2Oc2cc(O)ccc21)C(=O)NCCOCCOCC(=O)N[C@H](CCCCN)C(=O)NCCOCCOCC(=O)N[C@H](CCCCN)C(=O)NCCOCCOCC(=O)N[C@H](CCCCN)C(N)=O [FAP2BD-Ala] (H-K(MethylRed)[dA]PSK(5FAM)[AEEA][dK][AEEA][dK][AEEA][dK]-NH2)	
reduced signal		FAP specificity over PREP	C[C@H](O)[C@@H](NC(=O)[C@@H](N)CCCCNC(=O)c1ccccc1/N=N/c1ccc(N(C)C)cc1)C(=O)N1CCC[C@H]1C(=O)N[C@@H](CO)C(=O)N[C@@H](CCCCNC(=O)c1ccc2c(c1)C(=O)OC21c2ccc(O)cc2Oc2cc(O)ccc21)C(=O)NCCOCCOCC(=O)N[C@H](CCCCN)C(=O)NCCOCCOCC(=O)N[C@H](CCCCN)C(=O)NCCOCCOCC(=O)N[C@H](CCCCN)C(N)=O [FAP2DD-Thr] (H-K(MethylRed)[dT]PSK(5FAM)[AEEA][dK][AEEA][dK][AEEA][dK]-NH2)	

More lines, now with the values behind:

Molecule	Cleavage by rhFAP (fluorescence signal) [1]	Cleavage by rhPREP (fluorescence signal) [2]	FAP specificity (over PREP) [1]	other results
CN(C)c1ccc(/N=N/c2ccccc2C(=O)NCCCC[C@H](N)C(=O)N[C@H](CO)C(=O)N2CCC[C@H]2C(=O)N[C@@H](CO)C(=O)N[C@@H](CCCCNC(=O)c2ccc3c(c2)C(=O)OC32c3ccc(O)cc3Oc3cc(O)ccc32)C(=O)NCCOCCOCC(=O)N[C@H](CCCCN)C(=O)NCCOCCOCC(=O)N[C@H](CCCCN)C(=O)NCCOCCOCC(=O)N[C@H](CCCCN)C(N)=O)cc1 [FAP2CD-Ser] (H-K(MethylRed)[dS]PSK(5FAM)[AEEA][dK][AEEA][dK][AEEA][dK]-NH2)	highest rate of cleavage	without PREP cleavage	FAP specificity over PREP	Cleavage by rhFAP (fluorescence signal) ([1]; listed as D-Ser): reduced signal
CN(C)c1ccc(/N=N/c2ccccc2C(=O)NCCCC[C@H](N)C(=O)N[C@H](Cc2ccc(O)cc2)C(=O)N2CCC[C@H]2C(=O)N[C@@H](CO)C(=O)N[C@@H](CCCCNC(=O)c2ccc3c(c2)C(=O)OC32c3ccc(O)cc3Oc3cc(O)ccc32)C(=O)NCCOCCOCC(=O)N[C@H](CCCCN)C(=O)NCCOCCOCC(=O)N[C@H](CCCCN)C(=O)NCCOCCOCC(=O)N[C@H](CCCCN)C(N)=O)cc1 [FAP2ED-Tyr] (H-K(MethylRed)[dY]PSK(5FAM)[AEEA][dK][AEEA][dK][AEEA][dK]-NH2)	loss of FAP activity			
CN(C)c1ccc(/N=N/c2ccccc2C(=O)NCCCC[C@H](N)C(=O)NCCC(=O)N2CCC[C@H]2C(=O)N[C@@H](CO)C(=O)N[C@@H](CCCCNC(=O)c2ccc3c(c2)C(=O)OC32c3ccc(O)cc3Oc3cc(O)ccc32)C(=O)NCCOCCOCC(=O)N[C@H](CCCCN)C(=O)NCCOCCOCC(=O)N[C@H](CCCCN)C(=O)NCCOCCOCC(=O)N[C@H](CCCCN)C(N)=O)cc1 [FAP2Fβ-Ala] (H-K(MethylRed)[βAla]PSK(5FAM)[AEEA][dK][AEEA][dK][AEEA][dK]-NH2)	reduced signal		FAP specificity over PREP	
CC(C)[C@H](NC(=O)[C@@H](N)CCCCNC(=O)c1ccccc1/N=N/c1ccc(N(C)C)cc1)C(=O)N[C@H](CO)C(=O)N1CCC[C@H]1C(=O)N[C@@H](CO)C(=O)N[C@@H](CCC(N)=O)C(=O)NCC(=O)N[C@@H](CCCCNC(=O)c1ccc2c(c1)C(=O)OC21c2ccc(O)cc2Oc2cc(O)ccc21)C(=O)NCCOCCOCC(=O)N[C@H](CCCCN)C(=O)NCCOCCOCC(=O)N[C@H](CCCCN)C(=O)NCCOCCOCC(=O)N[C@H](CCCCN)C(N)=O [FAP-sP, reference compound] (H-K(MethylRed)V[dS]PSQGK(5FAM)[AEEA][dK][AEEA][dK][AEEA][dK]-NH2)		no rhPREP cleavage	demonstrated FAP specificity	Cleavage by DPP-IV (exopeptidase activity, fluorescence signal) [3]: no cleavage
CC(C)[C@H](N)C(=O)N1CCC[C@H]1B(O)O [Talabostat, Val-boroPro, reference compound]				Inhibition of FAP3 intensity and lifetime change in NSCLC tissue [4]: abrogated; IC50 [5]: 4 nM
KGPGPNQC [ANPFAP]				Signal in FAP expressing tumours [6]: higher signal
